Tests used:
[1] = system: antigen induced broncho-constriction in sensitized guinea pigs; assay: Inhibition of anaphylactic bronchospasm in sensitized guinea pigs (ovalbumin challenge); assay type: in vivo, guinea pig; conditions: 2 hours before ovalbumin challenge, vs vehicle-treated control
Description: The compounds of this invention may be employed as anti-allergy agents in the treatment of, for example, asthma, allergic or seasonal rhinitis, and/or chronic bronchitis. The anti-allergy method of this invention is identified by tests which measure a compound's inhibition of anaphylactic bronchosoasm in sensitized guinea pigs having antigen induced broncho-constriction.
In one such test procedure, male Hartley guinea pigs (250-300 g) are sensitized with 5 mg ovalbumin injected i.p. and 5 mg injected s.c. in 1 ml saline on day 1 and 5 mg ovalbumin injected i.p. on day 4. The sensitized animals are used 3-4 weeks later at which time they weigh 450-500 g.
The sensitized guinea pigs are fasted overnight and the following morning are anesthetized with 0.9 ml/kg i.p. of dialurethane (0.1 g/ml diallybarbituric acid, 0.4 g/ml ethylurea and 0.4 g/ml urethane). The trachea are cannulated and the animals are ventilated by a Harvard® rodent respirator at 50 strokes/minute with a stroke volume of 5 ml. A side arm to the tracheal cannula is connected to a pressure transducer (Harvard) to obtain a continuous measure of intratracheal pressure which is recorded on a polygraph (Harvard). The jugular vein is cannulated for the i.v. administration of substances. The animals are challenged with antigen (0.5% ovalbumin) as an aerosol generated from a DeVilbiss® Model 65 ultrasonic nebulizer and delivered through the tracheal cannula for 30 seconds. Bronchoconstriction is measured as the peak increase in intratracheal pressure occurring within 5 minutes after antigen challenge.
The sensitized guinea pigs are injected i.v. with 1 mg/kg propranolol, 5 mg/kg indomethacin and 2 mg/kg mepyramine given together in a volume of 1 ml/kg. Fifteen minutes later the animals are challenged with nebulized ovalbumin. Test compounds are administered orally 2 hours before challenge with ovalbumin. Suppression of anaphylactic bronchospasm is expressed as a percent inhibition of the peak increase in intratracheal pressure by comparison to a vehicle-treated control group.

[2] = Carboni et al., Farmaco, Ed. Sci., 1973; cited from earlier work
[3] = system: Reversed Passive Arthus Response in the right rear paw of rats; assay: Reversed Passive Arthus Response (RPAR), rat paw volume; assay type: in vivo; conditions: 25 mg/kg p.o. once daily for 3 days
Description: Male Lewis inbred albino rats weighing 180-200 grams obtained from Charles River Breeding Laboratories are used in these experiments. The rats are housed 3 animals/cage and food and water are allowed ad libitum. The animals are numbered 1-3 in each cage and color marked for identification purposes.
All reagents and drugs are prepared just prior to the study. Crystallized and lyophilized bovine serum albumin (BSA), available from Sigma Chemical Company, is solubilized without shaking in cold, sterile, pyrogen-free saline (10 mg/ml). Lyophilized anti-bovine serum albumin (IgG fraction), obtained from Cappel Laboratories, is suspended in sterile distilled water and diluted with cold, pyrogen-free saline (PFS) just prior to use. […]
Groups of animals (6/group) are dosed with drug in MC by gavace once daily for 3 days. […] The volume of mercury displaced is converted to weight and recorded. This value is considered to be the control reading for the animal. Paw volumes are subsequently recorded with a plethysmograph during the development of the inflammation at 2 and 4 hours post-challenge.
Results are expressed by the chance in paw volume (Δ paw volume) from the control reading for each animal to that recorded 2 and 4 hours post-challenge. […] Differences from control in drug-treated groups are expressed as percent change from control are determined.

[4] = system: GVHR splenomegaly in C57 B1/6XA/J(F6AF1) male mice; assay: Graft vs. host reaction (GVHR), spleen weight; assay type: in vivo, mouse; conditions: 100 mg/kg orally for 10 days; compared to untreated animals
Description: To induce a GVHR, C57 B1/6XA/J(F6AF1) male mice were injected intravenously with parental (C57B/6J) spleen and lymph node cells. 3-(2-Hydroxyethyl)-1-phenyl-1,8-naphthyridin-2(1H)-one (Compound A) was then administered orally for 10 days beginning on the day prior to the cell transfer. On the day following the last treatment, the animals were sacrificed, and their spleens were excised and weighed. The enlargement of the spleen of the host is a result of a GVHR. To some extent it is the host's own cells which infiltrate and enlarge the spleen although they do this because of the presence of graft cells reacting against the host. The amount of spleen enlargement, splenomegaly, is taken as a measure of the severity of the GVHR.
In carrying out the GVHR the animal in the experimental group is injected with parental cells, cells of the same species but of different genotype, which cause a weight increase of the spleen. […] The effectiveness of the compounds administered to the mice in the experimental group is measured by comparing the spleen weight of the untreated and treated GVH animal with that of the syngeneic control. Compound A in this test procedure reduced spleen weight by 92% at a dose of 100 mg/kg as compared to the untreated animals.

[5] = system: reverse passive Arthus reaction in the pleural cavity of rats; assay: Reverse passive Arthus reaction in the pleural cavity of rats (Myers et al.); assay type: in vivo; conditions: Rattus norvegicus, po; pleural fluid
Description: Another procedure for testing for acute anti-inflammatory activity measures the reverse passive Arthus reaction in the pleural cavity of rats as described in Myers et al., Inflammation, Vol. 9, No. 1, 1985, pp. 91-98. Compound A provided an ED50 value (fluid) of about 5.0 mg/kg p.o. in such procedure.

[6] = system: spleen weight of BDF1 mice; assay: Splenic atrophy, decrease in spleen weight; assay type: in vivo; conditions: Mus musculus, oral, seven consecutive days
Description: The immunosuppressive activity of the compounds may also be shown by a decrease in spleen weight after dosing BDF1 mice orally with the drug for seven (7) consecutive days. The mice are sacrificed on the eighth day. The percent decrease in spleen weight is measured for each dosage level. In this procedure, Compound A provided an ED30 of less than 25 mg/kg.

## O=c1c(CCO)cc2cccnc2n1-c1cccc(Cl)c1 [B]
[1]; dose p.o. 2 mg/kg
  % Inhibition of anaphylactic bronchospasm (peak increase in intratracheal pressure): 79%

## O=c1ccc2ccc(OCc3ccccc3)nc2n1Cc1ccccc1 [1-benzyl-7-benzyloxy-[1,8]naphthyridin-2-one]
[2]
  antibacterial activity: inactive

## COCCOc1c(C)c2cccnc2n(-c2ccccc2)c1=O [Compound C]
[3]; 2 hours post-challenge
  % inhibition (Δ paw volume) after 2 hours: 74%
[3]; 4 hours post-challenge
  % inhibition (Δ paw volume) after 4 hours: 36%
[1]; dose p.o. 5 mg/kg
  % Inhibition of anaphylactic bronchospasm (peak increase in intratracheal pressure): 25%

## O=c1c(CCO)cc2cccnc2n1-c1ccccc1 [Compound A, 3-(2-Hydroxyethyl)-1-phenyl-1,8-naphthyridin-2(1H)-one]
[1]; dose p.o. 5 mg/kg
  % Inhibition of anaphylactic bronchospasm (peak increase in intratracheal pressure): 78%
[4]
  reduction of spleen weight: 92%
[5]
  ED50: ~5 mg/kg
[6]
  ED30: < 25 mg/kg

From patent publication US5037826A, “1-substituted naphthyridine and pyridopyrazine derivatives” (Schering Corporation, priority 1986, dated 1991)
